Assay results from US6900019B1, “In-situ cell extraction and assay method” (Amersham Biosciences UK Limited, priority 1997, dated 2005).
“And” between values parts separate entries of the source, which are not always exact repeats. Identical values can stand only once.

System: rabbit anti-cAMP sera (antigen:antibody binding)
Assay: Scintillation proximity radioimmunoassay for cAMP: standard curves with lysis reagents and sequestrants
Method: All assays were carried out in microtitre plates compatible with a microtitre plate beta scintillation counter. Standards (50 μl; 0.2-12.8 pmol/well), antisera (50 μl; at 1:11000 dilution), tracer (50 ul; 10000-20000 cpm) are added to anti-rabbit coated SPA beads (50 μl; 20 mg/ml). Non-specific binding was determined in the absence of specific rabbit antisera. SPA anti-rabbit reagent is placed onto a magnetic stirrer to ensure a homogeneous suspension before pipetting. All wells contained a total volume of 200 μl. The plates were sealed and incubated at room temperature (15-30° C.) for 15-20 hours. The amount of [^125I]cAMP bound to the SPA fluomicrospheres was determined by counting in a microtitre plate beta scintillation counter for 2 minutes.
Experiments were set up with:— • a) Working standards (4-256 pmol/ml; 0.2-12.8 pmol/well) were prepared in assay buffer (0.05M sodium acetate buffer containing 0.01% sodium azide) only (control) or assay buffer containing lysis reagent (e.g. DTAB, CPC or SDS; see experiment 1) at various concentrations. • b) Rabbit anti-cAMP sera prepared in assay buffer only (control) or assay buffer containing sequestrating agent at various concentrations depending on the experiment. • c) Radioactive tracer: adenosine 3′ 5′-cyclic phosphoric acid 2′-O-succinyl-3-[^125I] iodotyrosine methyl ester prepared in assay buffer only (control) or assay buffer containing sequestrating agent at various concentrations depending on the experiment. • d) Donkey anti-rabbit IgG coupled to scintillation proximity fluomicrospheres prepared in assay buffer only (control) or assay buffer containing sequestrating agent at various concentrations depending on the experiment. Experiment 1: Inhibition of Antigen and Antibody Binding by Several Lysis Reagents Method
In these experiments, standard curves were prepared for cAMP using the SPA immunoassay technique, described above, where working standards of cAMP were prepared in several lysis reagents at 1% (w/v) or 2% (w/v) final concentration. The detergents investigated included dodecyl trimethyl ammonium bromide (DTAB; Sigma Chemical Co. D8638), benzethonium chloride (BZC; Aldrich; B470-8), cetyl pyridinium chloride (CPC; Sigma Chemical Co; C9002), sodium dodecyl sulphate (SDS, Sigma chemical Co; L4509) and N-dodecyl-N,N-dimethyl-3-ammonio-1-propanesulphonate (DDAPS; Sigma Chemical Co.; D4516).
In these experiments, standard curves for cAMP were prepared using the SPA immunoassay technique described above, where working standards of cAMP were prepared in 1% (w/v), 1.5% (w/v) or 2% (w/v) lysis reagents (DTAB, SDS or CPC). The control consisted of no lysis reagent or cyclodextrin added. The effect including 2.5% (w/v) alpha-cyclodextrin (alpha-CD) (Sigma Chemical Co.; C4642) on antigen:antibody binding was investigated. Here, tracer, antisera and SPA beads were prepared in assay buffer containing 2.5% (w/v) alpha-CD. A second control tested the effect of 2.5% (w/v) alpha-CD on the standard curve without addition of lysis reagent.
In this experiment, standard curves for cAMP were prepared using the SPA radioimmunoassay where working standards of cAMP were prepared in 1% (w/v) DTAB. The effect of including 1% (w/v), 2% (w/v), 2.5% (w/v) and 5% (w/v) alpha-cyclodextrin on antigen:antibody binding was investigated. Here, tracer, antisera and SPA beads were prepared in assay buffer containing alpha-CD at the above concentrations. The control consisted of no lysis or cyclodextrin added to the assay.
In this experiment, standard curves for cAMP were prepared using the SPA immunoassay technique where working standards were prepared 1% (wt) lysis reagent (DTAB). The effect of including 2.5% (w/v) alpha-cyclodextrin (CD) 2.5% (w/v) beta-cyclodextrin (beta-CD) (Sigma is Chemical Co.; C4767) and 2.5% (w/v) gamma-cyclodextrin (gamma-CD) (Sigma Chemical Co.; 4892) on antigen:antibody binding was investigated. […]

For `OC[C@H]1O[C@@H]2O[C@H]3[C@H](O)[C@@H](O)[C@@H](O[C@H]4[C@H](O)[C@@H](O)[C@@H](O[C@H]5[C@H](O)[C@@H](O)[C@@H](O[C@H]6[C@H](O)[C@@H](O)[C@@H](O[C@H]7[C@H](O)[C@@H](O)[C@@H](O[C@H]1[C@H](O)[C@H]2O)O[C@@H]7CO)O[C@@H]6CO)O[C@@H]5CO)O[C@@H]4CO)O[C@@H]3CO` [CD, alpha-cyclodextrin], the “restoration of antigen:antibody binding” value (1% (w/v) and 2% (w/v) alpha-CD, standards in 1% DTAB) was “restored binding to a limited degree”, the “restoration of antigen:antibody binding” value (2.5% (w/v) alpha-CD, standards in 1% DTAB) was “optimal results” and the “restoration of antigen:antibody binding by different sequestrants” value (2.5% (w/v) sequestrant, standards in 1% DTAB) was “restored binding to an optimal degree”. For the same compound, the “effect on the cAMP standard curve” value (2.5% alpha-CD only, no lysis reagent) was “little impact”, the “[125I]cAMP bound to SPA beads, counts per minute” value (“[125I]cAMP bound … per minute” below) (2.5% alpha-cyclodextrin only, no lysis reagent, 0.2 pmol cAMP/well) was 2790 cpm and the “[125I]cAMP bound … per minute” value (2.5% alpha-cyclodextrin only, no lysis reagent, 0.2 pmol cAMP/well, listed as cyclodextrin) was 2358 cpm. The “[125I]cAMP bound … per minute” value (2.5% alpha-cyclodextrin only, no lysis reagent, 0.4 pmol cAMP/well) was 2485 cpm, the “[125I]cAMP bound … per minute” value (2.5% alpha-cyclodextrin only, no lysis reagent, 0.4 pmol cAMP/well, listed as cyclodextrin) was 1979 cpm and the “[125I]cAMP bound … per minute” value (2.5% alpha-cyclodextrin only, no lysis reagent, 0.8 pmol cAMP/well) was 1979 cpm. For the same compound, the “[125I]cAMP bound … per minute” value (2.5% alpha-cyclodextrin only, no lysis reagent, 0.8 pmol cAMP/well, listed as cyclodextrin) was 1682 cpm, the “[125I]cAMP bound … per minute” value (2.5% alpha-cyclodextrin only, no lysis reagent, 1.6 pmol cAMP/well) was 1503 cpm and the “[125I]cAMP bound … per minute” value (2.5% alpha-cyclodextrin only, no lysis reagent, 1.6 pmol cAMP/well, listed as cyclodextrin) was 1499 cpm. For the same compound, the “[125I]cAMP bound … per minute” value (2.5% alpha-cyclodextrin only, no lysis reagent, 3.2 pmol cAMP/well) was 1058 cpm, the “[125I]cAMP bound … per minute” value (2.5% alpha-cyclodextrin only, no lysis reagent, 3.2 pmol cAMP/well, listed as cyclodextrin) was 1143 cpm and the “[125I]cAMP bound … per minute” value (2.5% alpha-cyclodextrin only, no lysis reagent, 6.4 pmol cAMP/well) was 674 cpm. For the same compound, the “[125I]cAMP bound … per minute” value (2.5% alpha-cyclodextrin only, no lysis reagent, 6.4 pmol cAMP/well, listed as cyclodextrin) was 754 cpm, the “[125I]cAMP bound … per minute” value (2.5% alpha-cyclodextrin only, no lysis reagent, 12.8 pmol cAMP/well) was 415 cpm and the “[125I]cAMP bound … per minute” value (2.5% alpha-cyclodextrin only, no lysis reagent, 12.8 pmol cAMP/well, listed as cyclodextrin) was 383 cpm. For the same compound, the “[125I]cAMP bound … per minute” value (2.5% alpha-cyclodextrin only, no lysis reagent, NSB (no specific antisera)) was 155 cpm, the “[125I]cAMP bound … per minute” value (2.5% alpha-cyclodextrin only, no lysis reagent, NSB (no specific antisera), listed as cyclodextrin) was 199 cpm and the “[125I]cAMP bound … per minute” value (2.5% alpha-cyclodextrin only, no lysis reagent, Zero standard) was 3300 cpm. The “[125I]cAMP bound … per minute” value (2.5% alpha-cyclodextrin only, no lysis reagent, Zero standard, listed as cyclodextrin) was 3145 cpm and the “restoration of antigen:antibody binding” value (5% (w/v) alpha-CD, standards in 1% DTAB) was “inhibitory”.

With `CCCCCCCCCCCC[N+](C)(C)C.[Br-]` [DTAB, dodecyl trimethyl ammonium bromide] the “[125I]cAMP bound … per minute” value (1% lysis reagent, no sequestrant, 0.2 pmol cAMP/well) was 1118 cpm and 1575 cpm, the “[125I]cAMP bound … per minute” value (1% lysis reagent, no sequestrant, 0.4 pmol cAMP/well) was 1098 cpm and 1573 cpm and the “[125I]cAMP bound … per minute” value (1% lysis reagent, no sequestrant, 0.8 pmol cAMP/well) was 1088 cpm and 1305 cpm. For the same compound, the “[125I]cAMP bound … per minute” value (1% lysis reagent, no sequestrant, 1.6 pmol cAMP/well) was 977 cpm and 1097 cpm, the “[125I]cAMP bound … per minute” value (1% lysis reagent, no sequestrant, 3.2 pmol cAMP/well) was 860 cpm and 813 cpm and the “[125I]cAMP bound … per minute” value (1% lysis reagent, no sequestrant, 6.4 pmol cAMP/well) was 649 cpm and 619 cpm. For the same compound, the “[125I]cAMP bound … per minute” value (1% lysis reagent, no sequestrant, 12.8 pmol cAMP/well) was 440 cpm and 439 cpm, the “[125I]cAMP bound … per minute” value (1% lysis reagent, no sequestrant, NSB (no specific antisera)) was 130 cpm and 182 cpm and the “[125I]cAMP bound … per minute” value (1% lysis reagent, no sequestrant, Zero standard) was 1429 cpm and 1586 cpm. The “[125I]cAMP bound … per minute” value (1.5% lysis reagent only, 0.2 pmol cAMP/well) was 799 cpm, the “[125I]cAMP bound … per minute” value (1.5% lysis reagent only, 0.4 pmol cAMP/well) was 713 cpm and the “[125I]cAMP bound … per minute” value (1.5% lysis reagent only, 0.8 pmol cAMP/well) was 688 cpm. For the same compound, the “[125I]cAMP bound … per minute” value (1.5% lysis reagent only, 1.6 pmol cAMP/well) was 513 cpm, the “[125I]cAMP bound … per minute” value (1.5% lysis reagent only, 3.2 pmol cAMP/well) was 426 cpm and the “[125I]cAMP bound … per minute” value (1.5% lysis reagent only, 6.4 pmol cAMP/well) was 376 cpm. The “[125I]cAMP bound … per minute” value (1.5% lysis reagent only, 12.8 pmol cAMP/well) was 264 cpm, the “[125I]cAMP bound … per minute” value (1.5% lysis reagent only, NSB (no specific antisera)) was 237 cpm and the “[125I]cAMP bound … per minute” value (1.5% lysis reagent only, Zero standard) was 819 cpm. For the same compound, the “[125I]cAMP bound … per minute” value (2% lysis reagent, no sequestrant, 0.2 pmol cAMP/well) was 231 cpm and 198 cpm, the “[125I]cAMP bound … per minute” value (2% lysis reagent, no sequestrant, 0.4 pmol cAMP/well) was 231 cpm and 216 cpm and the “[125I]cAMP bound … per minute” value (2% lysis reagent, no sequestrant, 0.8 pmol cAMP/well) was 201 cpm. For the same compound, the “[125I]cAMP bound … per minute” value (2% lysis reagent, no sequestrant, 1.6 pmol cAMP/well) was 195 cpm and 179 cpm, the “[125I]cAMP bound … per minute” value (2% lysis reagent, no sequestrant, 3.2 pmol cAMP/well) was 179 cpm and 176 cpm and the “[125I]cAMP bound … per minute” value (2% lysis reagent, no sequestrant, 6.4 pmol cAMP/well) was 170 cpm and 144 cpm. The “[125I]cAMP bound … per minute” value (2% lysis reagent, no sequestrant, 12.8 pmol cAMP/well) was 93 cpm and 78 cpm, the “[125I]cAMP bound … per minute” value (2% lysis reagent, no sequestrant, NSB (no specific antisera)) was 145 cpm and 138 cpm and the “[125I]cAMP bound … per minute” value (2% lysis reagent, no sequestrant, Zero standard) was 272 cpm and 217 cpm.
